In general, logP refers to the decadic logarithm of the partition coefficient of the neutral form, usually between octanol and water. The low end stands for lower lipophilicity, the high end for higher lipophilicity.

One data set concerns Plutella maculipennis. The data set can be described thus: Plutella test. It counts as in vivo, Plutella maculipennis (diamond-back moth). Conditions: 72 h, active compound concentration 0.01 %, after 3d, read-out: Degree of destruction in % after 3d. The method, then: (§1) Solvent: 7 parts by weight of dimethylformamide
(§2) Emulsifier: 1 part by weight of alkylaryl polyglycol ether
(§3) To produce a suitable preparation of active compound, 1 part by weight of active compound is mixed with the stated amount of solvent and the stated amount of emulsifier, and the concentrate is diluted with water to the desired concentration.
Cabbage leaves (Brassica oleracea) are treated by being dipped into the preparation of active compound of the desired concentration and are infested with caterpillars of the diamond-back moth (Plutella maculipennis) while the leaves are still moist.
After the desired period of time, the destruction in % is determined. 100% means that all the caterpillars have been killed; 0% means that none of the caterpillars have been killed.
In the case of `CC(C)(C)CNC(=O)OCCCN1CC([N+](=O)[O-])=C2N(Cc3ccc(Cl)nc3)CCN2C1`, the mortality at 0.01 % is 100%. On the same count and under the same terms, to `O=C(NCCN1CC([N+](=O)[O-])=C2N(Cc3ccc(Cl)nc3)CCN2C1)OCc1ccccc1` [drawing 127] belongs 100%; to `O=C(NCCCCCCCl)OCCCN1CC([N+](=O)[O-])=C2N(Cc3ccc(Cl)nc3)CCN2C1` [drawing 132], 100%.

The same data set, now with this note: 72 h, active compound concentration 0.1 %, after 3d, read-out: Degree of destruction in % after 3d.
As to `CC(C)(C)CNC(=O)OCCCN1CC([N+](=O)[O-])=C2N(Cc3ccc(Cl)nc3)CCN2C1`, the mortality at 0.1 % was found to be 100%. Still for that read-out and setting: to `O=C(NCCN1CC([N+](=O)[O-])=C2N(Cc3ccc(Cl)nc3)CCN2C1)OCc1ccccc1` [drawing 127] belongs 100%; to `O=C(NCCCCCCCl)OCCCN1CC([N+](=O)[O-])=C2N(Cc3ccc(Cl)nc3)CCN2C1` [drawing 132], 100%.

The same data set, now with this note: 72 h, read-out: Degree of destruction in % after 3d.
Regarding `CC(=O)OCCN1CC([N+](=O)[O-])=C2N(Cc3ccc(Cl)nc3)CCN2C1`, the mortality at 0.01 % was 100% and the mortality at 0.1 % stood at 100%. As to `CC(C)(C)OC(=O)NCCN1CC([N+](=O)[O-])=C2N(Cc3ccc(Cl)nc3)CCN2C1` [drawing 123], the mortality at 0.01 % was 100% and the mortality at 0.1 % was found to be 100%. `CCOC(=O)NCCN1CC([N+](=O)[O-])=C2N(Cc3ccc(Cl)nc3)CCN2C1` [drawing 124]: the mortality at 0.01 % was found to be 100% and the mortality at 0.1 % came to 100%.

As for `CC(=O)NCCN1CC([N+](=O)[O-])=C2N(Cc3ccc(Cl)nc3)CCN2C1` [drawing 125], the mortality at 0.01 % worked out at 100% and the mortality at 0.1 % came out at 100%.

On to `CCOC(=O)NCCCN1CC([N+](=O)[O-])=C2N(Cc3ccc(Cl)nc3)CCN2C1` [drawing 126], for which the mortality at 0.01 % is 100% and the mortality at 0.1 % was determined as 100%. In the case of `CNC(=O)OCCCN1CC([N+](=O)[O-])=C2N(Cc3ccc(Cl)nc3)CCN2C1` [drawing 128], the mortality at 0.01 % was 100% and the mortality at 0.1 % amounted to 100%. Turning to `CC(=O)OCCCN1CC([N+](=O)[O-])=C2N(Cc3ccc(Cl)nc3)CCN2C1` [drawing 129], the mortality at 0.01 % came to 100% and the mortality at 0.1 % turned out to be 100%.

For the next data set, the system named is Myzus persicae. Kind of data set: Myzus test. It counts as in vivo, Myzus persicae (green peach aphid). Conditions: 144 h, active compound concentration 0.001 %, after 6d, read-out: Degree of destruction in % after 6d. The method, then: as §1, §2, §3
Cabbage leaves (Brassica oleracea) which are severely infested with the green peach aphid (Myzus persicae) are treated by being dipped into the preparation of active compound of the desired concentration.
After the desired period of time, the destruction in % is determined. 100% means that all the aphids have been killed; 0% means that none of the aphids have been killed.
Consider `CCCCNC(=O)OCCCN1CC([N+](=O)[O-])=C2N(Cc3ccc(Cl)nc3)CCN2C1`, for which the mortality at 0.001 % amounted to 98%.

The data set is the same for the next values; noted with them: 144 h, active compound concentration 0.01 %, after 6d, read-out: Degree of destruction in % after 6d.
In the case of `CCCCNC(=O)OCCCN1CC([N+](=O)[O-])=C2N(Cc3ccc(Cl)nc3)CCN2C1`, the mortality at 0.01 % came to 100%.

The same data set, now with this note: 144 h, read-out: Degree of destruction in % after 6d.
Consider `O=[N+]([O-])C1=C2N(Cc3ccc(Cl)nc3)CCCN2CN(CCOCC(F)(F)F)C1` [drawing 137, reference compound], for which the mortality at 0.001 % stood at 0% and the mortality at 0.01 % was 80%. For `CC(C)(C)OC(=O)NCCN1CC([N+](=O)[O-])=C2N(Cc3ccc(Cl)nc3)CCN2C1` [drawing 138], in that order: 100% and 100%. The corresponding values for `CCOC(=O)NCCN1CC([N+](=O)[O-])=C2N(Cc3ccc(Cl)nc3)CCN2C1` [drawing 139] are 95% and 100%.

Turning to `CC(=O)NCCN1CC([N+](=O)[O-])=C2N(Cc3ccc(Cl)nc3)CCN2C1` [drawing 140], the mortality at 0.001 % was found to be 100% and the mortality at 0.01 % came out at 100%.

As for `CCOC(=O)NCCCN1CC([N+](=O)[O-])=C2N(Cc3ccc(Cl)nc3)CCN2C1` [drawing 141], the mortality at 0.001 % was determined as 99% and the mortality at 0.01 % stood at 100%.

Test system in a further data set: not listed separately
The data set can be described thus: lg P (physical data).
Settings: not given
In turn, `COCCNC(=O)OCCCN1CC([N+](=O)[O-])=C2N(Cc3ccc(Cl)nc3)CCN2C1` [Example 31] displayed a logP of 1.11.

With `CCOCCOCCNC(=O)OCCN1CC([N+](=O)[O-])=C2N(Cc3ccc(Cl)nc3)CCN2C1` [Example 32], the lipophilicity (logP) amounted to 1.26.

In turn, `CC(COC(C)(C)C)NC(=O)OCCN1CC([N+](=O)[O-])=C2N(Cc3ccc(Cl)nc3)CCN2C1` (centres unmarked) [Example 33] registered a logP of 2.26.

In turn, `COCCOCCNC(=O)OCCCCCN1CC([N+](=O)[O-])=C2N(Cc3ccc(Cl)nc3)CCN2C1` [Example 34] showed a logP of 1.28. Still for that read-out and setting: to `CCOCCOCCNC(=O)OCCCCCN1CC([N+](=O)[O-])=C2N(Cc3ccc(Cl)nc3)CCN2C1` [Example 35] belongs 1.44. The same measure, in the same setting: to `COCCNC(=O)OCCCCCN1CC([N+](=O)[O-])=C2N(Cc3ccc(Cl)nc3)CCN2C1` [Example 36] belongs 1.24; to `O=C(Nc1ccc(S(=O)(=O)C(F)(F)F)cc1)OCCCCCN1CC([N+](=O)[O-])=C2N(Cc3ccc(Cl)nc3)CCN2C1` [Example 37], 2.29; to `O=C(Nc1ccccc1)OCCCCCN1CC([N+](=O)[O-])=C2N(Cc3ccc(Cl)nc3)CCN2C1` [Example 38], 1.79. Still for that read-out and setting: next, `CC(=O)OCCNC(=O)OCCCCCN1CC([N+](=O)[O-])=C2N(Cc3ccc(Cl)nc3)CCN2C1` [Example 39]: 0.82; `CC(C)(C)C(=O)OCCNC(=O)OCCCCCN1CC([N+](=O)[O-])=C2N(Cc3ccc(Cl)nc3)CCN2C1` [Example 40]: 1.81; `O=C(Nc1ccc(Cl)cc1)OCCCCCN1CC([N+](=O)[O-])=C2N(Cc3ccc(Cl)nc3)CCN2C1` [Example 41]: 2.09.

Consider `CC(C)(C)CNC(=O)OCCCCCN1CC([N+](=O)[O-])=C2N(Cc3ccc(Cl)nc3)CCN2C1` [Example 43], for which the logP stood at 2.01.

`O=C(Nc1ccc(SC(F)(F)F)cc1)OCCCCCN1CC([N+](=O)[O-])=C2N(Cc3ccc(Cl)nc3)CCN2C1` [Example 44] displayed a logP of 2.74.

`COC(C)(C)CNC(=O)OCCCCCN1CC([N+](=O)[O-])=C2N(Cc3ccc(Cl)nc3)CCN2C1` [Example 45] came in with a logP of 1.56.

As for `COCCOCCNC(=O)OCCCCCCN1CC([N+](=O)[O-])=C2N(Cc3ccc(Cl)nc3)CCN2C1` [Example 46], the logP was found to be 1.47. The logP values of the last two compounds are within 0.2 log units of each other. On the same count and under the same terms, to `CCOCCOCCNC(=O)OCCCCCCN1CC([N+](=O)[O-])=C2N(Cc3ccc(Cl)nc3)CCN2C1` [Example 47] belongs 1.63; to `COCCNC(=O)OCCCCCCN1CC([N+](=O)[O-])=C2N(Cc3ccc(Cl)nc3)CCN2C1` [Example 48], 1.44; to `O=C(Nc1ccc(S(=O)(=O)C(F)(F)F)cc1)OCCCCCCN1CC([N+](=O)[O-])=C2N(Cc3ccc(Cl)nc3)CCN2C1` [Example 49], 2.51. Still for that read-out and setting: next, `O=C(Nc1ccccc1)OCCCCCCN1CC([N+](=O)[O-])=C2N(Cc3ccc(Cl)nc3)CCN2C1` [Example 50]: 2.01. `CC(=O)OCCNC(=O)OCCCCCCN1CC([N+](=O)[O-])=C2N(Cc3ccc(Cl)nc3)CCN2C1` [Example 51] gave a logP of 1.47.

For `CC(C)(C)C(=O)OCCNC(=O)OCCCCCCN1CC([N+](=O)[O-])=C2N(Cc3ccc(Cl)nc3)CCN2C1` [Example 52], the logP was found to be 1.98.

For `O=C(Nc1ccc(Cl)cc1)OCCCCCCN1CC([N+](=O)[O-])=C2N(Cc3ccc(Cl)nc3)CCN2C1` [Example 53], the logP was 2.27. Same read-out and setting: to `O=C(Nc1ccc(Cl)c(Cl)c1)OCCCCCCN1CC([N+](=O)[O-])=C2N(Cc3ccc(Cl)nc3)CCN2C1` [Example 54] belongs 2.59; to `CC(C)(C)CNC(=O)OCCCCCCN1CC([N+](=O)[O-])=C2N(Cc3ccc(Cl)nc3)CCN2C1` [Example 55], 2.05.

As for `O=C(Nc1ccc(SC(F)(F)F)cc1)OCCCCCCN1CC([N+](=O)[O-])=C2N(Cc3ccc(Cl)nc3)CCN2C1` [Example 56], the log partition coefficient (logP) came out at 2.71. The same measure, in the same setting: next, `COC(C)(C)CNC(=O)OCCCCCCN1CC([N+](=O)[O-])=C2N(Cc3ccc(Cl)nc3)CCN2C1` [Example 57]: 1.6; `COCCOCCNC(=O)OCCCCN1CC([N+](=O)[O-])=C2N(Cc3ccc(Cl)nc3)CCN2C1` [Example 58]: 1.2. Regarding `CCOCCOCCNC(=O)OCCCCN1CC([N+](=O)[O-])=C2N(Cc3ccc(Cl)nc3)CCN2C1` [Example 59], the logP amounted to 1.36. The logP values of the last two compounds are within 0.2 log units of each other. On to `O=C(Nc1ccc(S(=O)(=O)C(F)(F)F)cc1)OCCCCN1CC([N+](=O)[O-])=C2N(Cc3ccc(Cl)nc3)CCN2C1` [Example 60], for which the logP worked out at 2.22. `O=C(Nc1ccccc1)OCCCCN1CC([N+](=O)[O-])=C2N(Cc3ccc(Cl)nc3)CCN2C1` [Example 61] showed a logP of 1.72. Still for that read-out and setting: next, `CC(=O)OCCNC(=O)OCCCCN1CC([N+](=O)[O-])=C2N(Cc3ccc(Cl)nc3)CCN2C1` [Example 62]: 1.22; `CC(C)(C)C(=O)OCCNC(=O)OCCCCN1CC([N+](=O)[O-])=C2N(Cc3ccc(Cl)nc3)CCN2C1` [Example 63]: 1.73; `O=C(Nc1ccc(Cl)c(Cl)c1)OCCCCN1CC([N+](=O)[O-])=C2N(Cc3ccc(Cl)nc3)CCN2C1` [Example 65]: 1.53.

Turning to `CC(C)(C)CNC(=O)OCCCCN1CC([N+](=O)[O-])=C2N(Cc3ccc(Cl)nc3)CCN2C1` [Example 66], the logP was 1.75. On the same count and under the same terms, to `CCCCNC(=O)OC(C)CN1CC([N+](=O)[O-])=C2N(Cc3ccc(Cl)nc3)CCN2C1` (centres unmarked) [Example 75] belongs 1.63; to `CCCCNC(=O)OCCCCCN1CC([N+](=O)[O-])=C2N(Cc3cnc(Cl)s3)CCN2C1` [Example 78], 1.73. For `CC(C)(C)NC(=O)OCCCCCCN1CC([N+](=O)[O-])=C2N(Cc3cnc(Cl)s3)CCN2C1` [Example 79], the logP was found to be 1.9. On the same count and under the same terms, next, `O=[N+]([O-])C1=C2N(Cc3cnc(Cl)s3)CCN2CN(CCCCCCO)C1` [II-15]: 0.94; `O=[N+]([O-])C1=C2N(Cc3cnc(Cl)s3)CCN2CN(CCCCCO)C1` [II-16]: 0.71.

(Values after patent US6054459A, “Substituted 1,2,3,4-tetrahydro-5-nitro-pyrimidines” (priority 1994, dated 2000).)
